What was measured:
[1] = parameters: method as in Takahashi and Oishi 2000; details: pregnant rats; ref Takahashi and Oishi 2000; cited from earlier work
uterine wet weight = details: cited from earlier work
[2] = pregnant mice, 100 mg/kg subcutaneously; ref Domoradzki et al. 2003; Shin et al. 2002; Uchida et al. 2002; cited from earlier work
human ER-α (hER-α) = biological target: T1, human ER-α (hER-α) (Homo sapiens, UniProt P03372); assay: In vitro estrogenic activity assay, stable HEK cell line with hER-α and ERE-luciferase reporter; type: cell-based
T1 construct: expressed in transfected cells
T1 sequence (P03372 1-595): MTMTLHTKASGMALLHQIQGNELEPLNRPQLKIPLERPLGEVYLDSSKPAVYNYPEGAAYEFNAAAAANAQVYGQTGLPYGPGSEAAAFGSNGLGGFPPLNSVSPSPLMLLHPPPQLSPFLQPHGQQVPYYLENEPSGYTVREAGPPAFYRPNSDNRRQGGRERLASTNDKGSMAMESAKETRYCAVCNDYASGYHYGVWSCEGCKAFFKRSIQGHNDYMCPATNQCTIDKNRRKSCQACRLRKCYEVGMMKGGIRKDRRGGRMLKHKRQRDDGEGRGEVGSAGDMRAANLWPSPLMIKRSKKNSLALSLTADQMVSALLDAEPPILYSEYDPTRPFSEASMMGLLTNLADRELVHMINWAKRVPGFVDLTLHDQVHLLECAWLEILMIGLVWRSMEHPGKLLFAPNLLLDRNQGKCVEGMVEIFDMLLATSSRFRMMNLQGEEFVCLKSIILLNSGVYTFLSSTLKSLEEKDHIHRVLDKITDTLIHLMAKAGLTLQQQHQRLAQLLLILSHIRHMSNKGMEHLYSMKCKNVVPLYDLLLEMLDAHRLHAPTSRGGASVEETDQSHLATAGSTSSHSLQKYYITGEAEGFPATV
Method: (§1) Briefly, cells were plated in 96-well tissue culture plates (NUNC, Life Technologies, Breda, The Netherlands) in medium consisting of phenol red–free Dulbecco’s modified Eagle’s medium/F12 (1:1) medium containing 3 × 10^−8 M selenite, 10 μg/mL transferrin, 0.2% (wt/vol) bovine serum albumin, and 5% (wt/vol) dextran-coated charcoal-stripped fetal calf serum. […] Luciferase activity of 25 μL cell lysate was measured with the Luclite Luciferase Reporter gene assay kit (Perkin-Elmer, Brussels, Belgium) according to the manufacturer’s instructions using 25 μL Luclite solution on a Topcount liquid scintillation counter (Perkin-Elmer).
(§2) The in vitro dose–response activation curves obtained with the stable cell lines were fitted using the sigmoidal fit {y = a0 + a1/1 + exp[–(x – a2)/a3]} in Slidewrite Plus for Windows (version 3.0; BIS, Ridderkerk, The Netherlands), which determines the fitting coefficients by an iterative process minimizing the c2 merit function (least squares criterion). […] The cell line data shown are the average of at least two independent experiments with each experimental point performed in triplicate. Data are shown as a percentage of maximal induction by E2.

human and mouse ER-α = system: human and mouse ER-α; parameters: method as in Matthews et al. 2000; details: ref Matthews et al. 2000; cited from earlier work
estrogen receptors (ERs) [3] = assay: Ex vivo luciferase measurement in lysates of transgenic embryos exposed in utero; parameters: species or system mouse
Method: (§3) To obtain transgenic embryos, heterozygote transgenic males from line INS3 were mated with wild-type females (F1 from C57Bl/6J × CBA). Heterozygote males were used so that every litter would also contain wild type embryos, which could serve as an internal negative control. Females were checked daily for the presence of a vaginal plug, and when a plug was detected, that day was designated 0.5 day postcoitum (dpc).
(§4) Animal experiments were performed with approval of the Netherlands Academy of Arts and Sciences Animal Ethics Committee. The IVIS imaging experiments were done with additional approval of the Animal Ethics Committee of NV Organon.
When embryos were isolated from the amniotic membranes, we kept tails separated and stored at –20°C for subsequent DNA isolation and polymerase chain reaction for presence of the transgene, as described previously ([Legler et al. 2000]). Only transgenic embryos were used for further luciferase measurement. Subsequently, embryos were thawed on ice and lysis buffer [1% (vol/vol) Triton X-100, 2.5 × 10^−2 M glycylglycine, 1.5 × 10^−2 M MgSO4, 4 × 10^−3 M EGTA, and 1 × 10^−3 M dithiothreitol (DTT)] was added. Next, samples were sonicated, the lysate centrifuged, and the supernatant collected. […] Luciferase activity was corrected for protein content as measured with the Bradford assay.
(§5) We considered one litter as a statistical unit rather than one embryo because we assumed that all embryos in one litter were subject to the same variation of the compound injection and placental transfer. Therefore, the average ± SEM per litter was calculated, and these were then averaged to express the luciferase activity per group. All data were log-transformed and tested for normality with the Shapiro-Wilks test using SPSS 12.0 (SPSS, Chicago, IL, USA).

ER = system: ER; parameters: method as in Nagel et al. (2001); details: 1 mg/kg; ref Nagel et al. (2001); cited from earlier work
estrogen receptors (ERs) [4] = assay: In vivo (in utero) luciferase measurement with IVIS imaging in transgenic ERE-luciferase embryos; parameters: species or system mouse; details: 10,000 μg/kg, 8 hr after exposure
Method: as §3, §4, §5

hER-β = biological target: T2, hER-β (Homo sapiens, UniProt Q92731); assay: In vitro estrogenic activity assay, stable HEK cell line with hER-β and ERE-luciferase reporter; type: cell-based
T2 construct: expressed in transfected cells
Method: as §1, §2

[5] = parameters: method as in McLachlan 1977; details: 14C-DES injected in pregnant mice; ref McLachlan 1977; cited from earlier work
estrogen receptors (ERs) [6] = details: adult transgenic animals; ref Lemmen et al. 2004; cited from earlier work

T2 sequence (Q92731 whole entry): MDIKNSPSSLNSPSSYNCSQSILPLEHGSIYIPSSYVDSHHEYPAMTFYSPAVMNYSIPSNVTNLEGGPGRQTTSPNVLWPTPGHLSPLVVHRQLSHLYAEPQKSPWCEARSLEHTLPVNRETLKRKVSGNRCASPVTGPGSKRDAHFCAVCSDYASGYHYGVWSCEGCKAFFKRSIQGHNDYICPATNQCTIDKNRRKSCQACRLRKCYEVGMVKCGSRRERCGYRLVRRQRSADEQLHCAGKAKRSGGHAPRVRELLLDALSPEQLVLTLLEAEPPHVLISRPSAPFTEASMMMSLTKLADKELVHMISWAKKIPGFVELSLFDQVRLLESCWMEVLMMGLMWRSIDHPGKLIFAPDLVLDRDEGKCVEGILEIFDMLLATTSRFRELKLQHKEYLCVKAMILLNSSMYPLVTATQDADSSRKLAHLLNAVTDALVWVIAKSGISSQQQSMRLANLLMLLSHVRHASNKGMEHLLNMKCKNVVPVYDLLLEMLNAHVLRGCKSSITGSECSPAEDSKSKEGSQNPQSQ

| SMILES | time of peak concentration in fetal circulation [1] | uterine wet weight response (uterine wet weight; 1 mg/kg, ref Nagel et al. (2001)) | uterotrophic response (uterine wet weight; CD-1 mice, 100 mg/kg, ref Markey et al. 2001) | activity in the uterine wet weight assay (uterine wet weight; CFLP mice, 0.5 mg/mouse (~ 16.7 mg/kg), ref Coldham et al. 1997) | toxicity in the uterine wet weight assay (uterine wet weight; mouse, in vivo, 167 mg/kg) | time after exposure at which detected in fetal sera, liver, brain, uterus and testes [2] | times less active than DES in activating ER-α (human ER-α (hER-α)) | affinity of human versus mouse ER-α (human and mouse ER-α) | luciferase activity versus oil-exposed controls, embryo lysates (estrogen receptors (ERs) [3]; 1,000 μg/kg, 8 hr after exposure) | luciferase activity versus oil-exposed controls, embryo lysates (estrogen receptors (ERs) [3]; 10,000 μg/kg, 8 hr after exposure) | dose at which in utero luciferase activation was significant from oil-exposed controls (estrogen receptors (ERs) [3]; 8 hr after exposure) | luciferase activity versus oil-exposed animals, embryo lysates (estrogen receptors (ERs) [3]; 24 hr after exposure, BPA 10–10,000 μg/kg (Figure 2)) | ER transcriptional activity in the adult uterus (ER) | luciferase activity versus oil-exposed animals, IVIS (estrogen receptors (ERs) [4]) | times less active than DES toward ER-β transactivation (hER-β) | time of peak fetal plasma levels [5] | time of peak luciferase activity after exposure (estrogen receptors (ERs) [6]) |
| --- | --- | --- | --- | --- | --- | --- | --- | --- | --- | --- | --- | --- | --- | --- | --- | --- | --- |
| CC(C)(c1ccc(O)cc1)c1ccc(O)cc1 [BPA, bisphenol A] | 15 to 20 min | did not induce | induced | inactive | toxic | 30 min | 5,000 times | same affinity | significantly higher | significantly higher | 1 mg/kg | no difference | significant increase | not statistically significant | 1,400 times | – | – |
| CC/C(=C(/CC)c1ccc(O)cc1)c1ccc(O)cc1 [DES, diethylstilbestrol, reference compound] | – | – | – | – | – | – | – | same affinity | – | – | – | – | – | – | – | 2 h | – |
| C[C@]12CC[C@@H]3c4ccc(O)cc4CC[C@H]3[C@@H]1CC[C@@H]2O [E2, 17β-estradiol] | – | – | – | – | – | – | – | – | – | – | – | – | – | – | – | – | 8 h |

Reference: article PMC1247619 (Environmental Health Perspectives, 2004)
